{"source": "ChEMBL document CHEMBL1149499", "about": "“Synthesis and agonist activity of cyclic ADP-ribose analogues with substitution of the northern ribose by ether or alkane chains” (J Med Chem, 2006)", "type_in_all_cases": "functional, cell-based", "conditions_in_all_cases": "Homo sapiens", "key": {"Jurkat [1]": {"tested_on": "Jurkat", "test": "Agonist activity against cADPR/RyR assessed as induction of calcium influx in intact jurkat T cells at 500 uM"}, "Jurkat [2]": {"tested_on": "Jurkat", "test": "Antagonist activity against cADPR/RyR assessed as inhibition of anti CD3-stimulated calcium influx in intact jurkat T cells at 500 uM"}, "Jurkat [3]": {"tested_on": "Jurkat", "test": "Induction of calcium flux in single jurkat T cell by confocal calcium imaging experiment at 500 uM"}}, "note": "Active and inactive are the calls of the source. The calls are words filed in the database; no cut-off is given here."}
{"smiles": "N=c1c2ncn3c2ncn1CCCCOP(=O)(O)OP(=O)(O)OC[C@H]1O[C@@H]3[C@H](O)[C@@H]1O", "values": [{"measurement": "Activity", "setting": "Jurkat [1]", "result": "Active"}, {"measurement": "Activity", "setting": "Jurkat [2]", "result": "inactive"}]}
{"smiles": "N=c1c2ncn3c2ncn1CCCCCOP(=O)(O)OP(=O)(O)OC[C@H]1O[C@@H]3[C@H](O)[C@@H]1O", "values": [{"measurement": "Activity", "setting": "Jurkat [1]", "result": "Active"}, {"measurement": "Activity", "setting": "Jurkat [2]", "result": "inactive"}]}
{"smiles": "N=c1c2ncn3c2ncn1CCOCCOP(=O)(O)OP(=O)(O)OC[C@H]1O[C@@H]3[C@H](O)[C@@H]1O", "values": [{"measurement": "Activity", "setting": "Jurkat [1]", "result": "Active"}, {"measurement": "Activity", "setting": "Jurkat [3]", "result": "Active"}, {"measurement": "Activity", "setting": "Jurkat [2]", "result": "inactive"}]}
